System: RAW 264.7 cells
Test: Quantitative cell-permeability of FITC-labeled aMTD- or rPeptide-fused CRA recombinant proteins (flow cytometry)
Type: cell-based
Details: for Relative Ratio to aMTD AVE: cell-permeability of rPeptide-fused CRA recombinant protein relative to average of 240 aMTDs
Description: The aMTDs and rPeptides were fluorescently labeled and compared based on the critical factors for cell-permeability by using flow cytometry and confocal laser scanning microscopy (FIGS. 5 to 8). The cellular uptake of the peptide-fused non-functional cargo recombinant proteins could quantitatively be evaluated in flow cytometry, while confocal laser scanning microscopy allows intracellular uptake to be assessed visually. The analysis included recombinant proteins fused to a negative control [rP38] that has opposite characteristics (hydrophilic and aromatic sequence: […] NO: 952)) to the aMTDs (hydrophobic and aliphatic sequences). Relative cell-permeability (relative fold) of aMTDs to the negative control was also analyzed (Table 23 and FIG. 9). […] RAW 264.7 cells were treated with 10 μM FITC-labeled recombinant proteins for 1 hour at 37° C., washed three times with cold PBS, treated with 0.25% tripsin/EDTA (Sigma-Aldrich, St. Louis, Mo.) for 20 minutes at 37° C. to remove cell-surface bound proteins. Cell-permeability of these recombinant proteins were analyzed by flow cytometry (Guava, Millipore, Darmstadt, Germany) using the FlowJo cytometric analysis software (FIGS. 5 to 6).

[1] = cell-permeability of aMTD-fused CRA recombinant protein relative to negative control (A: rP38)
[2] = cell-permeability of aMTD-fused CRA recombinant protein relative to reference CPP (B: MTM12)
[3] = cell-permeability of aMTD-fused CRA recombinant protein relative to reference CPP (C: MTD85)
[4] = 10 μM FITC-labeled, 1 hour, 37° C., RAW 264.7 cells
[5] = cell-permeability relative to negative control rP38 (A type), aMTD-fused CRA recombinant protein, 10 μM FITC-labeled, 1 hour, 37° C., RAW 264.7 cells
[6] = cell-permeability relative to reference CPP MTD85 (C type), aMTD-fused CRA recombinant protein, 10 μM FITC-labeled, 1 hour, 37° C., RAW 264.7 cells
[7] = cell-permeability relative to reference CPP MTM12 (B type), aMTD-fused CRA recombinant protein, 10 μM FITC-labeled, 1 hour, 37° C., RAW 264.7 cells

744 (AAVVIVAPVALP; Amino acid Sequence of aMTD744) [compound 744]
Relative Ratio (Fold) A [1]: 11.0 Fold
Relative Ratio (Fold) B [2]: 7.3 Fold
Relative Ratio (Fold) C [3]: 3.7 Fold

826 (LVALAAPIIAVP; Amino acid Sequence of aMTD826) [compound 826]
Relative Ratio (Fold) A [1]: 49.2 Fold
Relative Ratio (Fold) B [2]: 32.9 Fold
Relative Ratio (Fold) C [3]: 18.6 Fold

11 (VVALAPALAALP; Amino acid Sequence of aMTD11) [compound 11]
Relative Ratio (Fold) A [1]: 9.5 Fold
Relative Ratio (Fold) B [2]: 6.3 Fold
Relative Ratio (Fold) C [3]: 3.2 Fold

382 (AAALVIPAILAP; Amino acid Sequence of aMTD382) [compound 382]
Relative Ratio (Fold) A [1]: 17.7 Fold
Relative Ratio (Fold) B [2]: 11.8 Fold
Relative Ratio (Fold) C [3]: 6.0 Fold

603 (VLVALAAPVIAP; Amino acid Sequence of aMTD603) [compound 603]
Relative Ratio (Fold) A [1]: 54.1 Fold
Relative Ratio (Fold) B [2]: 36.1 Fold
Relative Ratio (Fold) C [3]: 18.2 Fold

1 (AAALAPVVLALP; Amino acid Sequence of aMTD1) [compound 1]
Relative Ratio (Fold) A [1]: 17.7 Fold
Relative Ratio (Fold) B [2]: 11.8 Fold
Relative Ratio (Fold) C [3]: 6.0 Fold

66 (AGVLGGPIMGVP; Amino acid Sequence of rPeptide ID 66) [compound 66]
Relative Ratio to aMTD AVE [4]: 0.13

852 (VLAVAAPAVLLP; Amino acid Sequence of aMTD852) [compound 852]
Relative Ratio (Fold) A [1]: 84.6 Fold
Relative Ratio (Fold) B [2]: 56.6 Fold
Relative Ratio (Fold) C [3]: 28.6 Fold

811 (AVVLAVPALAVP; Amino acid Sequence of aMTD811) [compound 811]
Relative Ratio (Fold) A [1]: 46.5 Fold
Relative Ratio (Fold) B [2]: 31.1 Fold
Relative Ratio (Fold) C [3]: 15.7 Fold

404 (LAAAVIPAAILP; Amino acid Sequence of aMTD404) [compound 404]
Relative Ratio (Fold) A [1]: 18.9 Fold
Relative Ratio (Fold) B [2]: 12.6 Fold
Relative Ratio (Fold) C [3]: 6.4 Fold

225 (VAALLPAAAVLP; Amino acid Sequence of aMTD225) [compound 225]
Relative Ratio (Fold) A [1]: 18.3 Fold
Relative Ratio (Fold) B [2]: 12.2 Fold
Relative Ratio (Fold) C [3]: 6.2 Fold

325 (IVAVALPAVALP; Amino acid Sequence of aMTD325) [compound 325]
Relative Ratio (Fold) A [1]: 11.7 Fold
Relative Ratio (Fold) B [2]: 7.8 Fold
Relative Ratio (Fold) C [3]: 4.0 Fold

905 (AVIAVAPLVVAP; Amino acid Sequence of aMTD905) [compound 905]
Relative Ratio (Fold) A [1]: 44.0 Fold
Relative Ratio (Fold) B [2]: 29.5 Fold
Relative Ratio (Fold) C [3]: 14.9 Fold

828 (IALLAAPIIAVP; Amino acid Sequence of aMTD828) [compound 828]
Relative Ratio (Fold) A [1]: 36.8 Fold
Relative Ratio (Fold) B [2]: 24.6 Fold
Relative Ratio (Fold) C [3]: 12.4 Fold

184 (LAAIVPAIIAVP; Amino acid Sequence of aMTD184) [compound 184]
Relative Ratio (Fold) A [5]: 4.8 Fold
Relative Ratio (Fold) C [6]: 1.6 Fold
Relative Ratio (Fold) B [7]: 3.2 Fold

462 (IAAVLVPAVALP; Amino acid Sequence of aMTD462) [compound 462]
Relative Ratio (Fold) A [5]: 6.3 Fold
Relative Ratio (Fold) C [6]: 2.1 Fold
Relative Ratio (Fold) B [7]: 4.2 Fold

201 (LALAVPALAALP; Amino acid Sequence of aMTD201) [compound 201]
Relative Ratio (Fold) A [5]: 4.2 Fold
Relative Ratio (Fold) C [6]: 1.4 Fold
Relative Ratio (Fold) B [7]: 2.8 Fold

700 (GTSNTCQSNQNS; Amino acid Sequence of rPeptide ID 700) [compound 700]
Relative Ratio to aMTD AVE [4]: 0.05
Relative Ratio (Fold) A (relative cell-permeability of rPeptide vs reference A (not defined)): 1.0 Fold
Relative Ratio (Fold) B (relative cell-permeability of rPeptide vs reference CPP B: MTM12): 0.6 Fold
Relative Ratio (Fold) C (relative cell-permeability of rPeptide vs reference CPP C: MTD85): 0.3 Fold

341 (IVAVALPAVLAP; Amino acid Sequence of aMTD341) [compound 341]
Relative Ratio (Fold) A [1]: 16.4 Fold
Relative Ratio (Fold) B [2]: 10.9 Fold
Relative Ratio (Fold) C [3]: 5.5 Fold

763 (VAVLIAVPALAP; Amino acid Sequence of aMTD763) [compound 763]
Relative Ratio (Fold) A [1]: 12.3 Fold
Relative Ratio (Fold) B [2]: 7.2 Fold
Relative Ratio (Fold) C [3]: 4.2 Fold

783 (IVALVPAVAIAP; Amino acid Sequence of aMTD783) [compound 783]
Relative Ratio (Fold) A [5]: 5.7 Fold
Relative Ratio (Fold) C [6]: 1.9 Fold
Relative Ratio (Fold) B [7]: 3.8 Fold

221 (AAILAPIVALAP; Amino acid Sequence of aMTD221) [compound 221]
Relative Ratio (Fold) A [1]: 10.9 Fold
Relative Ratio (Fold) B [2]: 7.3 Fold
Relative Ratio (Fold) C [3]: 3.7 Fold

145 (LLAVVPAVALAP; Amino acid Sequence of aMTD145) [compound 145]
Relative Ratio (Fold) A [1]: 9.5 Fold
Relative Ratio (Fold) B [2]: 6.3 Fold
Relative Ratio (Fold) C [3]: 3.2 Fold

62 (VALLAPVALAVP; Amino acid Sequence of aMTD62) [compound 62]
Relative Ratio (Fold) A [5]: 1.4 Fold
Relative Ratio (Fold) C [6]: 0.5 Fold
Relative Ratio (Fold) B [7]: 0.9 Fold

85 (LLVLPAAALAAP; Amino acid Sequence of aMTD85) [compound 85]
Relative Ratio (Fold) A [5]: 1.9 Fold
Relative Ratio (Fold) C [6]: 0.7 Fold
Relative Ratio (Fold) B [7]: 1.3 Fold

582 (VAVALIVPALAP; Amino acid Sequence of aMTD582) [compound 582]
Relative Ratio (Fold) A [1]: 30.6 Fold
Relative Ratio (Fold) B [2]: 20.4 Fold
Relative Ratio (Fold) C [3]: 10.3 Fold

391 (VVAIVLPAVAAP; Amino acid Sequence of aMTD381) [compound 391]
Relative Ratio (Fold) A [1]: 11.5 Fold
Relative Ratio (Fold) B [2]: 7.7 Fold
Relative Ratio (Fold) C [3]: 3.9 Fold

875 (AIAIVVPAVAVP; Amino acid Sequence of aMTD875) [compound 875]
Relative Ratio (Fold) A [1]: 13.8 Fold
Relative Ratio (Fold) B [2]: 9.2 Fold
Relative Ratio (Fold) C [3]: 4.7 Fold

635 (GSTGGSQQNNQY; Amino acid Sequence of rPeptide ID 635) [compound 635]
Relative Ratio to aMTD AVE [4]: 0.07

282 (VLAVAPALIVAP; Amino acid Sequence of aMTD282) [compound 282]
Relative Ratio (Fold) A [1]: 11.8 Fold
Relative Ratio (Fold) B [2]: 7.9 Fold
Relative Ratio (Fold) C [3]: 4.0 Fold

643 (LALVLAAPAIVP; Amino acid Sequence of aMTD643) [compound 643]
Relative Ratio (Fold) A [1]: 11.8 Fold
Relative Ratio (Fold) B [2]: 7.9 Fold
Relative Ratio (Fold) C [3]: 4.0 Fold

724 (VAVLAVLPALAP; Amino acid Sequence of aMTD724) [compound 724]
Relative Ratio (Fold) A [1]: 47.5 Fold
Relative Ratio (Fold) B [2]: 31.8 Fold
Relative Ratio (Fold) C [3]: 16.1 Fold

893 (VIAIPAILAAAP; Amino acid Sequence of aMTD893) [compound 893]
Relative Ratio (Fold) A [5]: 7.0 Fold
Relative Ratio (Fold) C [6]: 2.4 Fold
Relative Ratio (Fold) B [7]: 4.7 Fold

625 (ILAAAAAPLIVP; Amino acid Sequence of aMTD625) [compound 625]
Relative Ratio (Fold) A [1]: 20.3 Fold
Relative Ratio (Fold) B [2]: 13.9 Fold
Relative Ratio (Fold) C [3]: 7.0 Fold

502 (AIVALAVPVLAP; Amino acid Sequence of aMTD502) [compound 502]
Relative Ratio (Fold) A [5]: 5.6 Fold
Relative Ratio (Fold) C [6]: 1.9 Fold
Relative Ratio (Fold) B [7]: 3.7 Fold

342 (VIVALAPAVLAP; Amino acid Sequence of aMTD342) [compound 342]
Relative Ratio (Fold) A [1]: 12.7 Fold
Relative Ratio (Fold) B [2]: 8.5 Fold
Relative Ratio (Fold) C [3]: 4.3 Fold

661 (AAILAPIVAALP; Amino acid Sequence of aMTD661) [compound 661]
Relative Ratio (Fold) A [1]: 21.4 Fold
Relative Ratio (Fold) B [2]: 14.3 Fold
Relative Ratio (Fold) C [3]: 7.2 Fold

906 (AVIALAPVVVAP; Amino acid Sequence of aMTD906) [compound 906]
Relative Ratio (Fold) A [5]: 6.8 Fold
Relative Ratio (Fold) C [6]: 2.3 Fold
Relative Ratio (Fold) B [7]: 4.6 Fold

265 (VLAIAPLLAAVP; Amino acid Sequence of aMTD265) [compound 265]
Relative Ratio (Fold) A [5]: 6.0 Fold
Relative Ratio (Fold) C [6]: 2.0 Fold
Relative Ratio (Fold) B [7]: 4.0 Fold

302 (LALAPALALLAP; Amino acid Sequence of aMTD302) [compound 302]
Relative Ratio (Fold) A [1]: 10.2 Fold
Relative Ratio (Fold) B [2]: 6.8 Fold
Relative Ratio (Fold) C [3]: 3.4 Fold

667 (LAVAIVAPALVP; Amino acid Sequence of aMTD667) [compound 667]
Relative Ratio (Fold) A [5]: 6.9 Fold
Relative Ratio (Fold) C [6]: 2.3 Fold
Relative Ratio (Fold) B [7]: 4.6 Fold

— US10385103B2, “Cell-permeable (ICP)-SOCS3 recombinant protein and uses thereof” (CELLIVERY THERAPEUTICS, INC., priority 2014, dated 2019)
